# Where no end group is shown, it is not given here.
# Test system: S. aureus (29): reference (5) and clinical (24) strains
# Details: mean over 29 S. aureus strains (Table 5)
# Protocol: Microbiological assays were performed using reference and clinical strains of Staphylococcus aureus. Minimal inhibitory concentrations (MIC) were determined by broth microdilution method on 96-well polystyrene plates according to Clinical and Laboratory Standards Institute (CLSI) recommendations [Clinical and Laboratory Standards Institute (CLSI) [2012]]. […] All plates were incubated for 18 h at 37 °C. […] Reference strains of S. aureus: ATCC 6538, ATCC 6538/P, ATCC 9144, ATCC 12598, and ATCC 25923 were obtained from the Polish Collection of Microorganisms (PCM, Polish Academy of Sciences, Wrocław), whereas 24 clinical strains were isolated from the patients of the Clinic of Dermatology, Venereology and Allergology (Medical University of Gdańsk). Nine strains were characterized as methicillin-resistant (MRSA). Preliminary identification and detection was conducted on the ChromID MRSA/ChromID S. aureus biplate (bioMérieux) for the simultaneous detection of S. aureus and methicillin-resistant S. aureus (MRSA). All experiments were conducted at least in triplicate.
# To asses an overall activity of peptides, the mean MIC values were calculated.
row,Substance,Mean value of MIC
1,KWKLFKKIGAVLKVL-NH2 [CAMEL],below 3.5 µg/mL
2,KWKLFKKIGAVLKVL-NH2 [CAMEL AcO^−],≤ 2.8 mg/L
3,FLPLIGRVLSGIL-NH2 [Temporin A TFA^−],5.9 mg/L
4,FLPLIGRVLSGIL-NH2 [Temporin A AcO^−],4.2 mg/L

# Same assay, conditions: mean over 29 S. aureus strains, as repeated in Table 6
row,Substance,Mean MIC values [mg/L]
1,KWKLFKKIGAVLKVL-NH2 [CAMEL AcO^−],≤ 2.8

# Same assay, conditions: range over all S. aureus strains and the salts of the peptide
row,Substance,MIC range among strains [mg/L]
1,GIGKFLKKAKKFGKAFVKILKK-NH2 [Pexiganan],1 to 16
2,GLFDVIKKVASVIGGL-NH2 [Citropin 1.1],1 to 32
3,KWKLFKKIGAVLKVL-NH2 [CAMEL],≤ 0.25 to 8

# Test system: S. aureus 001S (MRSA)
# Type: cell-based, Staphylococcus aureus
# Details: clinical strain, broth microdilution, 0.5 × 10^5 CFU/mL, 18 h, 37 °C, at least triplicate
# Protocol: (§1) Microbiological assays were performed using reference and clinical strains of Staphylococcus aureus. Minimal inhibitory concentrations (MIC) were determined by broth microdilution method on 96-well polystyrene plates according to Clinical and Laboratory Standards Institute (CLSI) recommendations [Clinical and Laboratory Standards Institute (CLSI) [2012]]. For this purpose, the initial inoculums of 0.5 × 10^5 CFU/mL of bacteria were exposed to a range of concentrations of the peptides (0.5–256 µg/mL). All plates were incubated for 18 h at 37 °C. MIC was taken as the lowest concentration of the compound at which the growth of bacteria was not observed. Reference strains of S. aureus: ATCC 6538, ATCC 6538/P, ATCC 9144, ATCC 12598, and ATCC 25923 were obtained from the Polish Collection of Microorganisms (PCM, Polish Academy of Sciences, Wrocław), whereas 24 clinical strains were isolated from the patients of the Clinic of Dermatology, Venereology and Allergology (Medical University of Gdańsk). Nine strains were characterized as methicillin-resistant (MRSA). Preliminary identification and detection was conducted on the ChromID MRSA/ChromID S. aureus biplate (bioMérieux) for the simultaneous detection of S. aureus and methicillin-resistant S. aureus (MRSA). All experiments were conducted at least in triplicate.
row,Substance,MIC [mg/L]
1,KWKLFKKIGAVLKVL-NH2 [CAMEL AcO^−],4

# Test system: S. aureus 004N (MRSA)
# Type: cell-based, Staphylococcus aureus
# Details: clinical strain, broth microdilution, 0.5 × 10^5 CFU/mL, 18 h, 37 °C, at least triplicate
# Protocol: as §1
row,Substance,MIC [mg/L]
1,KWKLFKKIGAVLKVL-NH2 [CAMEL AcO^−],4

# Test system: S. aureus 013S
# Type: cell-based, Staphylococcus aureus
# Details: clinical strain, broth microdilution, 0.5 × 10^5 CFU/mL, 18 h, 37 °C, at least triplicate
# Protocol: as §1
row,Substance,MIC
1,KWKLFKKIGAVLKVL-NH2 [CAMEL AcO^−],≤ (≤ alone stands for MIC ≤ 0.25 µg/mL)

# Test system: S. aureus 002N
# Type: cell-based, Staphylococcus aureus
# Details: clinical strain, broth microdilution, 0.5 × 10^5 CFU/mL, 18 h, 37 °C, at least triplicate
# Protocol: as §1
row,Substance,MIC [mg/L]
1,KWKLFKKIGAVLKVL-NH2 [CAMEL AcO^−],4

# Test system: S. aureus K46N
# Type: cell-based, Staphylococcus aureus
# Details: clinical strain, broth microdilution, 0.5 × 10^5 CFU/mL, 18 h, 37 °C, at least triplicate
# Protocol: as §1
row,Substance,MIC [mg/L]
1,KWKLFKKIGAVLKVL-NH2 [CAMEL AcO^−],4

# Test system: S. aureus 002S
# Type: cell-based, Staphylococcus aureus
# Details: clinical strain, broth microdilution, 0.5 × 10^5 CFU/mL, 18 h, 37 °C, at least triplicate
# Protocol: as §1
row,Substance,MIC [mg/L]
1,KWKLFKKIGAVLKVL-NH2 [CAMEL AcO^−],4

# Test system: S. aureus 017N (MRSA)
# Type: cell-based, Staphylococcus aureus
# Details: clinical strain, broth microdilution, 0.5 × 10^5 CFU/mL, 18 h, 37 °C, at least triplicate
# Protocol: as §1
row,Substance,MIC [mg/L]
1,KWKLFKKIGAVLKVL-NH2 [CAMEL AcO^−],2

# Test system: S. aureus 030N
# Type: cell-based, Staphylococcus aureus
# Details: clinical strain, broth microdilution, 0.5 × 10^5 CFU/mL, 18 h, 37 °C, at least triplicate
# Protocol: as §1
row,Substance,MIC [mg/L]
1,KWKLFKKIGAVLKVL-NH2 [CAMEL AcO^−],4

# Test system: S. aureus 001N (MRSA)
# Type: cell-based, Staphylococcus aureus
# Details: clinical strain, broth microdilution, 0.5 × 10^5 CFU/mL, 18 h, 37 °C, at least triplicate
# Protocol: as §1
row,Substance,MIC [mg/L]
1,KWKLFKKIGAVLKVL-NH2 [CAMEL AcO^−],2

# Test system: S. aureus ATCC 25923
# Type: cell-based, Staphylococcus aureus
# Details: ATCC 25923, reference strain; broth microdilution, 0.5 × 10^5 CFU/mL, 18 h, 37 °C, at least triplicate
# Protocol: as §1
row,Substance,MIC [mg/L]
1,KWKLFKKIGAVLKVL-NH2 [CAMEL AcO^−],8

# Test system: S. aureus ATCC 12598
# Type: cell-based, Staphylococcus aureus
# Details: ATCC 12598, reference strain; broth microdilution, 0.5 × 10^5 CFU/mL, 18 h, 37 °C, at least triplicate
# Protocol: as §1
row,Substance,MIC [mg/L]
1,KWKLFKKIGAVLKVL-NH2 [CAMEL AcO^−],2

# Test system: S. aureus K50S
# Type: cell-based, Staphylococcus aureus
# Details: clinical strain, broth microdilution, 0.5 × 10^5 CFU/mL, 18 h, 37 °C, at least triplicate
# Protocol: as §1
row,Substance,MIC [mg/L]
1,KWKLFKKIGAVLKVL-NH2 [CAMEL AcO^−],1

# Test system: S. aureus 039N
# Type: cell-based, Staphylococcus aureus
# Details: clinical strain, broth microdilution, 0.5 × 10^5 CFU/mL, 18 h, 37 °C, at least triplicate
# Protocol: as §1
row,Substance,MIC [mg/L]
1,KWKLFKKIGAVLKVL-NH2 [CAMEL AcO^−],4

# Test system: S. aureus ATCC 9144
# Type: cell-based, Staphylococcus aureus
# Details: ATCC 9144, reference strain; broth microdilution, 0.5 × 10^5 CFU/mL, 18 h, 37 °C, at least triplicate
# Protocol: as §1
row,Substance,MIC [mg/L]
1,KWKLFKKIGAVLKVL-NH2 [CAMEL AcO^−],2

# Test system: S. aureus 048S
# Type: cell-based, Staphylococcus aureus
# Details: clinical strain, broth microdilution, 0.5 × 10^5 CFU/mL, 18 h, 37 °C, at least triplicate
# Protocol: as §1
row,Substance,MIC [mg/L]
1,KWKLFKKIGAVLKVL-NH2 [CAMEL AcO^−],4

# Test system: S. aureus 024N (MRSA)
# Type: cell-based, Staphylococcus aureus
# Details: clinical strain, broth microdilution, 0.5 × 10^5 CFU/mL, 18 h, 37 °C, at least triplicate
# Protocol: as §1
row,Substance,MIC
1,KWKLFKKIGAVLKVL-NH2 [CAMEL AcO^−],≤ (≤ alone stands for MIC ≤ 0.25 µg/mL)

# Test system: S. aureus ATCC 6538/P
# Type: cell-based, Staphylococcus aureus
# Details: reference strain, broth microdilution, 0.5 × 10^5 CFU/mL, 18 h, 37 °C, at least triplicate
# Protocol: as §1
row,Substance,MIC [mg/L]
1,KWKLFKKIGAVLKVL-NH2 [CAMEL AcO^−],1

# Test system: S. aureus 033N
# Type: cell-based, Staphylococcus aureus
# Details: clinical strain, broth microdilution, 0.5 × 10^5 CFU/mL, 18 h, 37 °C, at least triplicate
# Protocol: as §1
row,Substance,MIC [mg/L]
1,KWKLFKKIGAVLKVL-NH2 [CAMEL AcO^−],4

# Test system: S. aureus 060S
# Type: cell-based, Staphylococcus aureus
# Details: clinical strain, broth microdilution, 0.5 × 10^5 CFU/mL, 18 h, 37 °C, at least triplicate
# Protocol: as §1
row,Substance,MIC [mg/L]
1,KWKLFKKIGAVLKVL-NH2 [CAMEL AcO^−],1

# Test system: S. aureus 051S
# Type: cell-based, Staphylococcus aureus
# Details: clinical strain, broth microdilution, 0.5 × 10^5 CFU/mL, 18 h, 37 °C, at least triplicate
# Protocol: as §1
row,Substance,MIC [mg/L]
1,KWKLFKKIGAVLKVL-NH2 [CAMEL AcO^−],2

# Test system: S. aureus 045N
# Type: cell-based, Staphylococcus aureus
# Details: clinical strain, broth microdilution, 0.5 × 10^5 CFU/mL, 18 h, 37 °C, at least triplicate
# Protocol: as §1
row,Substance,MIC [mg/L]
1,KWKLFKKIGAVLKVL-NH2 [CAMEL AcO^−],4

# Test system: S. aureus 005S
# Type: cell-based, Staphylococcus aureus
# Details: clinical strain, broth microdilution, 0.5 × 10^5 CFU/mL, 18 h, 37 °C, at least triplicate
# Protocol: as §1
row,Substance,MIC
1,KWKLFKKIGAVLKVL-NH2 [CAMEL AcO^−],≤ (≤ alone stands for MIC ≤ 0.25 µg/mL)

# Test system: S. aureus 015N (MRSA)
# Type: cell-based, Staphylococcus aureus
# Details: clinical strain, broth microdilution, 0.5 × 10^5 CFU/mL, 18 h, 37 °C, at least triplicate
# Protocol: as §1
row,Substance,MIC [mg/L]
1,KWKLFKKIGAVLKVL-NH2 [CAMEL AcO^−],4

# Test system: S. aureus K19N
# Type: cell-based, Staphylococcus aureus
# Details: clinical strain, broth microdilution, 0.5 × 10^5 CFU/mL, 18 h, 37 °C, at least triplicate
# Protocol: as §1
row,Substance,MIC [mg/L]
1,KWKLFKKIGAVLKVL-NH2 [CAMEL AcO^−],2

# Test system: S. aureus 043SC (MRSA)
# Type: cell-based, Staphylococcus aureus
# Details: clinical strain, broth microdilution, 0.5 × 10^5 CFU/mL, 18 h, 37 °C, at least triplicate
# Protocol: as §1
row,Substance,MIC [mg/L]
1,KWKLFKKIGAVLKVL-NH2 [CAMEL AcO^−],4

# Test system: S. aureus ATCC 6538
# Type: cell-based, Staphylococcus aureus
# Details: ATCC 6538, reference strain; broth microdilution, 0.5 × 10^5 CFU/mL, 18 h, 37 °C, at least triplicate
# Protocol: as §1
row,Substance,MIC
1,KWKLFKKIGAVLKVL-NH2 [CAMEL AcO^−],≤ (≤ alone stands for MIC ≤ 0.25 µg/mL)

# Test system: S. aureus 053N
# Type: cell-based, Staphylococcus aureus
# Details: clinical strain, broth microdilution, 0.5 × 10^5 CFU/mL, 18 h, 37 °C, at least triplicate
# Protocol: as §1
row,Substance,MIC [mg/L]
1,KWKLFKKIGAVLKVL-NH2 [CAMEL AcO^−],4

# Test system: S. aureus 051N (MRSA)
# Type: cell-based, Staphylococcus aureus
# Details: clinical strain, broth microdilution, 0.5 × 10^5 CFU/mL, 18 h, 37 °C, at least triplicate
# Protocol: as §1
row,Substance,MIC [mg/L]
1,KWKLFKKIGAVLKVL-NH2 [CAMEL AcO^−],2

# Test system: S. aureus 017S (MRSA)
# Type: cell-based, Staphylococcus aureus
# Details: clinical strain, broth microdilution, 0.5 × 10^5 CFU/mL, 18 h, 37 °C, at least triplicate
# Protocol: as §1
row,Substance,MIC [mg/L]
1,KWKLFKKIGAVLKVL-NH2 [CAMEL AcO^−],2
